“Also recorded” adds a separate entry of the source. Where two headings read alike, the source gives them in different places. Ends that are not written are not given here.
Assays:
[1] = test system: PC12 cells; details: ZnCl2 400 μM, 4 h
Protocol: FIG. 15: Rat pheochromocytoma cells (PC12) were seeded on Poly-D-Lysine coated 96-well tissue culture dishes in high concentration (30,000 cells/well). On the day of the experiment the cells were treated with ZnCl2 (400 μM) either alone or in combination with different concentration of SKIP for 4 h. After 4 h the cell viability was analyzed by MTS assay. […] All values are from one experiment performed in hexplicate.
Rat pheochromocytoma cell (PC12, ATCC, Bethesda, Md., USA) were grown in 10-cm tissue culture dishes (Corning). The base medium for this cell line was RPMI-1640 Medium (Invitrogen) supplemented with 10% heat-inactivated horse serum, 5% fetal bovine serum and solution containing 100 U/ml penicillin together with […] streptomycin (Biological Industries, Beit Haemek, Israel). The cells were incubated in 95% air; 5% CO2 in a humidified incubator at 37° C. The medium was changed every 2 to 3 days. The cells were subcultured when cell density reached 4×10^6 cells/ml. The cells were split in a ratio of 1:4.
On the day before the experiment cells were to be harvested, re-suspended and seeded on tissue culture dishes. For cell viability measurements, cells were seeded on Poly-D-Lysine coated 96-well tissue culture dishes (Sigma-Aldrich) at a concentration of 3×10^4 cells/well.
The cell viability is measured by colorimetric method that determines the number of viable cells in culture. This method is based on the bio-reduction of the tetrazolium compound [3-(4,5-dimethylthiazol-2-yl)-5-(3-carboxymethoxyphenyl)-2-(4-sulfophenyl)-2H-tetrazolium; MTS] by living cells into a colored formazan product. This reaction is occurring in the presence of an electron coupling reagent (phenazine ethosulfate; PES). The amount of formazan product is measured by ELISA plate reader at 490 nm and is directly proportional to the number of living cells in culture (CellTiter 96® AQueous One Solution Cell Proliferation Assay; Promega, Madison, Wis., USA).

[2] = test system: ADNP+/− mice; assay: Object recognition test in ADNP-deficient mice; assay type: in vivo, mouse; details: intranasal, twice a day, 1 month, ADNP+/− male mice
Description: (§1) All procedures involving animals were approved by the Animal Care and Use Committee of Tel Aviv University and the National Institutes of Health (Bethesda, Md.). ADNP heterozygous mice, a model for cognitive impairments (Vulih-Shultzman et al., 2007, J. Pharmacol. Exp. Ther. 323:438-449), were housed in a 12-h light/12-h dark cycle facility, and free access to rodent chow and water was available.
(§2) SKIP (SEQ ID NO:6) treatment included daily intranasal administrations over a 1 month period to 5-month-old male mice (2 μg/5 μl/mouse/day). For intranasal administration, the peptide was dissolved in a vehicle solution, in which each milliliter included 7.5 mg of NaCl, 1.7 mg of citric acid monohydrate, 3 mg of disodium phosphate dihydrate, and 0.2 mg of benzalkonium chloride solution (50%). SKIP (SEQ ID NO:6) or vehicle solution (DD) was administered to mice hand-held in a semisupine position with nostrils facing the investigator. A pipette tip was used to administer 5 μl/each nostril. The mouse was handheld until the solution was totally absorbed (˜10 s). Nasal SKIP (SEQ ID NO:6) application was performed daily, twice a day, for 1 month (5 days a week). After 1 month, SKIP (SEQ ID NO:6) was applied 2 h before the behavioral tests (described below).
The test includes 2 consecutive days of habituation (five minutes per day) and the experimental day which consists of the three phases. The test was conducted two hours after the daily intranasal SKIP (SEQ ID NO:6). During the first phase (Phase 1, habituation phase), the open field apparatus (arena of 50×50 cm) contained two identical objects (samples) and a mouse was placed in the apparatus facing the wall and allowed to freely explore the objects. At the end of the 5-min session of Phase 1, the mouse was put back into its home cage for 3 hours. […] The time spent sniffing/touching each object was measured. The data was analyzed using the following formula: D1=b−a, when ‘a’ designated the time of exploration of the familiar object and ‘b’ designated the time of exploration of the novel object. […]

[3] = test system: ADNP+/− mice; assay: Elevated plus-maze in ADNP-deficient mice; assay type: in vivo, mouse; details: intranasal treatment, ADNP+/− male mice, 5 min
Description: as §1
as §2, with “Nasal SKIP (SEQ ID NO:6) application was performed daily, twice a day, for 1 month (5 days a week). After 1 month, SKIP (SEQ ID NO:6) was applied 2 h before the behavioral tests (described below).” left out
The maze consisted of two open arms (50 cm×10 cm) and two closed arms 50 cm×10 cm×40 cm), with arms of each type opposite to each other. […] The data were analyzed using the following formula: D2=(b−a)/(b+a), when ‘a’ designated the time spent in the open arm and ‘b’ designated the time spent in the closed arm.

[4] = test system: ADNP+/− mice; assay: Morris water maze in ADNP-deficient mice; assay type: in vivo, mouse; details: intranasal, twice a day, 1 month, ADNP+/− male mice
Description: as §1
SKIP (SEQ ID NO:6) treatment included daily intranasal administrations over a 1 month period to 5-month-old male mice (2 μg/5 μl/mouse/day). […]
The apparatus was a pool with a diameter of 140 cm, filled with opaque water (23-24° C.). […] The time taken for an animal to reach the platform (latency) was recorded. The daily improvement (in seconds to reach the hidden platform) for each animal (in comparison to the starting day) was calculated. […] The platform was removed from the maze and the distance traveled and the time spent by the mice in the pool's quarter where the platform used to be, were recorded (for a maximal period of 90 s). Mouse behavior in the quarter that is most distant from the target quarter was also measured. All measurements were recorded as the percentage of the total time spent or total path traveled in the pool. To determine the general mobility of the mice in the pool, the swimming behavior of each animal was monitored and the total path length and swim velocity were calculated. […]

SKIP (not fully specified (N-terminus, C-terminus)) [SKIP (SEQ ID NO:6), 4-amino acid peptide Ser-Lys-Ile-Pro]
protection against Zn intoxication (MTS viability vs Zn alone) ([1]; peptide 10^−9M): showed protection
protection against Zn intoxication (MTS viability vs Zn alone) ([1]; peptide 10^−15M): showed protection
object recognition, Phase 2 short retention (discrimination index D1) [2]: improved short and long term memory
object recognition, Phase 3 long retention, 24 hours (discrimination index D1) [2]: improvement in long term memory for the ADNP-deficient mice, bringing them to the control levels; also recorded: improved short and long term memory
risky behavior, time spent in open vs closed arms [3]: reduction in the risky behavior; also recorded: improvement in the risky behavior
water maze first daily test (reference memory), latency to hidden platform [4]: improved learning on the 2nd day; also recorded: improved the memory
water maze second daily test, 5th day, latency to hidden platform [4]: improvement in the behavior of the ADNP-deficient mice, bringing them to the control levels

Reference: patent publication US10118943B2, “Compounds and methods for inhibiting cell death” (Ramot at Tel-Aviv University Ltd., priority 2012, dated 2018)
